# Source: patent US12102672B2, “Immunogenic sequences from a phage tail length tape measure protein, bacteria expressing the same and their use in treating a cancer” (INSTITUT GUSTAVE ROUSSY, priority 2017, dated 2024)
# “Also recorded” adds a separate entry of the source. Where no end group is shown, it is not given here.
# Legend:
# [1] = system: CD8+ T cells from HLA-A02*01 healthy volunteers; test: IFNγ ELISpot of CD8+ T cells from HLA-A2 healthy volunteers stimulated with TMP epitopes; format: cell-based, human; settings: Example 7, FIG. 24B
# splenic CD8+ T cells = test: IFNγ ELISpot recall assay of splenic CD8+ T cells with DCs pulsed with heat-inactivated bacteria or peptides; format: cell-based, mice; settings: for recall responses to TMP1, TMP2 and Group7 after in vivo immunization with the strain: Example 3, FIG. 13E; for TC1 response against TMP1 in mice gavaged with the strain (IFNγ ELISpot): Example 12, FIG. 27E
# Protocol: FIG. 9. Experimental immunization protocols to elucidate the immunogenicity of EH peptides. […] 5 days after the first oral gavage, mice are treated with CTX. One week post-CTX, CD8+ T cells are isolated from spleen. These CD8+ T cells are incubated with dendritic cells (DCs) pulsed with 20 μg/ml of peptides (during 1 hour) or with heat-inactivated bacteria (during 6 hours). Inactivation of bacteria consists in incubation at 65° C. during 2 hours. After 24 hours of culture, ELIspot of IFNγ is performed.
# FIG. 10. Cross-reactivity between the two E. hirae 708 and 13144 species for CTL splenic reactivity. Number of IFNγ spot representing IFNγ-secreting CD8+ T cells after co-culture with DCs pre-incubated with or without heat-inactivated bacteria (708, 13144, EH17 and L. plantarum).
# FIG. 13. Peptides from group 7 containing the TMP1 and TMP2 epitopes activate CD8+ T cells from spleen of mice immunized against E. hirae 13144. Number of IFNγ spot, representing IFNγ-secreting CD8+ T cells, after incubation with DCs pulsed with 13 different group of peptide (Table 6). Just group n° 1 (A) and group n° 7 (B) are shown. (C, E) Number of IFNγ spot, representing IFNγ-secreting CD8+ T cells, after incubation with DCs pulsed with 4 peptides belong to group n° 7 (in table 7). (D) Sequence alignment of TMP1 and TMP2 of EH10815 (SEQ ID Nos: 228 and 229 respectively) compared to EH13144 (fragments of SEQ ID NO: 1) at the level of immunogenic peptides. Amino acid sequence […] corresponds to SEQ ID No: 13. Amino acid sequence […] corresponds to SEQ ID No: 217. Amino acid sequence […] corresponds to SEQ ID Nos: 14. Amino acid sequence AlIEFIKGL corresponds to SEQ ID No: 218. (E) In vitro reactivity of splenic CTL in a recall response to TMP1 and TMP2 as well as Group7 after in vivo immunization with other strains of EH.
# (§1) A and C. Experimental setting. […] D-E. Ex vivo recall assays. […] Each dot represents one mouse.
# MCA-205 sarcoma [2] = test: MCA-205 sarcoma growth in FMT-treated mice, CTX plus oral gavage with E. hirae strains; format: in vivo; settings: for boost of CTX tumoricidal activity (MCA-205 tumor growth): dysbiotic FMT from BC patient, 3 cycles CTX 100 mg/kg, oral gavage 1.10^9 bacteria; for Anti-tumor effect: summary of the characteristics of the strains, with CTX, MCA205 sarcoma; for antitumor effect together with CTX (summary statements): MCA205 tumor model together with CTX
# Protocol: FIG. 1. Experimental setting. (A) Mice are treated with broad spectrum antibiotics (streptomycin, colistin, ampicillin and vancomycine) for 3 days before performing Fecal Microbiota Transplantation (FMT). 14 days post-FMT, MCA-205 sarcoma cell lines are inoculated in the right flank of mice (8.10^5 cells per mice). […] (B) Non FMT-treated SPF mice are used as control.
# FIG. 2. Dysbiosis by FMT BC patient 1: Effectiveness of E. hirae 13144 to restore CTX-mediated antitumor effects. […] (C) Tumor growth curves of MCA-205 sarcoma in FMT-treated mice after oral gavage with strain E. hirae 13144 or NaCl as control. 2 independent experiments are depicted. (D) Overall survival of FMT-treated, MCA-205 sarcoma bearing mice treated with CTX or NaCl after oral gavage with strain E. hirae 13144. A typical survival curve is depicted for six mice per group. (E) Concatenated data of tumor sizes at day 21 post-CTX from 2 independent experiments are shown.
# FIG. 3. […] (C) Tumor growth curves of MCA-205 sarcoma in FMT-treated mice after oral gavage with strain E. hirae 13144 or NaCl as control. 2 independent experiments are depicted. (D) Concatenated data of tumor sizes at day 21 post-CTX from 2 independent experiments are shown.
# FIG. 4. […] Tumor growth curves of MCA-205 sarcoma in FMT-treated mice after oral gavage with strain E. hirae 13144 (A), IGR1 (B) or NaCl as control. A typical curve is depicted for six mice per group. (C) Concatenated data of tumor sizes at day 17 post-CTX from 1-2 independent experiments are shown. (D). Comparaison of various strains of E. hirae for their capacity to control tumor growth. […] EH10815 fails to work and that may be related to a mutation residing in TMP2 (see below FIG. 13B).
# FIG. 5. […] (A) Tumor surface of MCA-205 sarcoma in FMT-treated mice after oral gavage with strain E. hirae 13144, IGR4, IGR7, Actinomycetes spp (Ao) and injected with 3 cycles of CTX (C) vs NaCl (N). Each dot is one mouse/tumor. (B) Tumor growth curves of MCA-205 sarcoma in SPF mice of the best group, means+SEM of tumor sizes at each time point and tumor sizes at sacrifice (C: CTX). Each dot is one mouse/tumor. Anova statistics indicating significant differences between CTX and the triple combination. (C) Tumor surface of MCA-205 sarcoma in FMT-treated mice after oral gavage with strains EH13144, IGR1, IGR11, Barnesiella or Akkermansia and injected with 3 cycles of CTX. Bacterial strains are used alive (V) or pasteurized (P). For pasteurization, bacteria are incubated 30 min at 70° C. and frozen at −80° C. at least 6 hours.
# FIG. 6. […] Tumor growth curves of MCA-205 sarcoma in FMT-treated mice after oral gavage with strain E. hirae 13144 alive (A), pasteurized (B) or NaCl as control. A typical curve is depicted for six mice per group. (C) Concatenated data of tumor sizes at day 17 post-CTX from 3 independent experiments are shown.
# BM-DC = test: IL-1B and IL-12 production by BM-DC; format: cell-based; settings: data not shown
# MCA-205 sarcoma [3] = test: MCA205 sarcoma growth in antibiotic-treated SPF C57BL/6 mice, CTX plus oral gavage with bacteria; format: in vivo; settings: ATB 3 days, CTX 100 mg/kg x3, weekly oral gavages, FIG. 27B
# Protocol: as §1
# A-B. Prophylactic vaccinations. […] C-D. Therapeutic settings.
# Mice were treated during 3 days with an antibiotic solution (ATB) containing ampicillin (1 mg/ml), streptomycin (5 mg/ml), colistin (1 mg/ml) (Sigma-Aldrich) and vancomycin (0.25 mg/ml) added in the sterile drinking water of mice. Antibiotic activity was confirmed by cultivating fecal pellets resuspended in BHI+15% glycerol at 0.1 g/ml on COS (BD Columbia Agar with 5% Sheep Blood) plates for 48 h at 37° C. in aerobic and anaerobic conditions. In the context of bacterial transplantation experiments, mice received 3 days of ATB before undergoing bacterial transplantation the next day by oral gavage using animal feeding needles.
# Syngeneic C57BL/6 mice were implanted with 0.8×10^6 MCA-205 WT sarcoma cells subcutaneously and treated intraperitoneally (i.p.) when tumors reached 20 to 35 mm^2 in size with CTX (100 mg/kg). Depending on the experimental setting, mice were injected once or 3 times at 1-week interval. Tumor size was routinely monitored every 3 days by means of a caliper.
# Enterococcus hirae 13144 were originally isolated from spleens of SPF mice treated with CTX in our laboratory.
# [4] = system: TMP1-specific CD8+ T cells; settings: FIG. 27H
# pTh17 cells = test: Induction of pTh17 cells in secondary lymphoid organs of CTX-treated animals; format: in vivo
# Source text: The reasons for these differences were however unknown, and the inventors pursued their research to identify the factor(s) responsible for the immunogenic properties of the murine strain EH13144 and the human clones IGR4, IGR7 and IGR11, in order to derive new molecules or microorganisms useful in the treatment of cancer.
# [5] = system: IFNg producing CD8^+ T (Tc1) cells; settings: naïve mice; cited from earlier work
# [6] = system: MCA205 cells with PSMB4 GSFARFRNI knock-in; test: Growth of Psmb4 knock-in MCA205 tumors under CTX +/- E. hirae 13144; format: in vivo, mice; settings: L→F exchange in position 3, versus WT MCA205
# [7] = target: fluorescent H-2K^b/[…] (SEQ ID No: 13) tetrameric complex (mouse; Enterococcus hirae 13144 (39.2 kb prophage, TMP)) (UniProt P01901); test: flow cytometry with the fluorescent H-2K^b/… tetramer
compound,measurement,setting,value
ILVAITTTI,immunogenicity in humans of HLA-A0201-restricted epitopes,[1],immunogenicity of which has been experimentally confirmed
AMIEFIQGL,recognition of peptides by memory EH13144-induced Tc1 cells (IFNγ ELISpot),"splenic CD8+ T cells; Example 3, FIG. 13/32, DCs pulsed with 20 μg/ml peptides",highly recognized
Enterococcus hirae IGR1 [IGR 1],boost of CTX tumoricidal activity (MCA-205 tumor growth),MCA-205 sarcoma [2],not immunogenic; also recorded: failed to efficiently boost CTX tumoricidal activity
same,Anti-tumor effect,MCA-205 sarcoma [2],No
same,IL-1B and IL-12 production by BM-DC,BM-DC,as effective as EH13144
Enterococcus hirae strain IGR11 [IGR 11],restoration of antibiotic-perturbed anticancer effects of CTX (MCA205 growth),MCA-205 sarcoma [3],efficient
same,restoration of antibiotic-perturbed anticancer effects of CTX (MCA205 growth),MCA-205 sarcoma [3]; listed as E. hirae IGR11,as efficient as E. hirae 13144
same,proportion of splenic TMP1-specific CTLs after immunization with the strain (tetramer),[4],high proportion
same,antitumor effect together with CTX (summary statements),MCA-205 sarcoma [2],efficient to mediate some tumoricidal activity
same,antitumor effect together with CTX (summary statements),MCA-205 sarcoma [2]; listed as clone IGR11,to some extent
same,boost of CTX tumoricidal activity (MCA-205 tumor growth),MCA-205 sarcoma [2],not immunogenic
same,Anti-tumor effect,MCA-205 sarcoma [2],Yes
same,IL-1B and IL-12 production by BM-DC,BM-DC,as effective as EH13144
KLAKFASVV,immunogenicity in humans of HLA-A0201-restricted epitopes,[1],immunogenicity of which has been experimentally confirmed
RLLKYDVGV,immunogenicity in humans of HLA-A0201-restricted epitopes,[1],immunogenicity of which has been experimentally confirmed
Enterococcus hirae strain IGR7 [IGR 7],"recall responses to TMP1, TMP2 and Group7 after in vivo immunization with the strain",splenic CD8+ T cells,induce recall responses
same,capacity to induce pTh17 cells in secondary lymphoid organs,pTh17 cells,significant capacity to induce pTh17 cells
same,restoration of antibiotic-perturbed anticancer effects of CTX (MCA205 growth),MCA-205 sarcoma [3],efficient
same,restoration of antibiotic-perturbed anticancer effects of CTX (MCA205 growth),MCA-205 sarcoma [3]; listed as E. hirae IGR7,as efficient as E. hirae 13144
same,proportion of splenic TMP1-specific CTLs after immunization with the strain (tetramer),[4],high proportion
same,antitumor effect together with CTX (summary statements),MCA-205 sarcoma [2],proved immunogenic
same,antitumor effect together with CTX (summary statements),MCA-205 sarcoma [2]; listed as clone IGR7,effective at synergizing with CTX
same,boost of CTX tumoricidal activity (MCA-205 tumor growth),MCA-205 sarcoma [2],also immunogenic
same,boost of CTX tumoricidal activity (MCA-205 tumor growth),MCA-205 sarcoma [2]; listed as EH IGR 7,efficacy comparable to EH 13144
same,Anti-tumor effect,MCA-205 sarcoma [2],Yes
"Enterococcus hirae 13344 [EH17 (13344), reference compound]",memory Tc1 immune response (IFNγ spots) to BM-DC infected with EH isolates,"splenic CD8+ T cells; Example 2, FIG. 10, splenic CD8+ T cells after gavage + CTX, ELISPOT at 24 hrs",failed to do so
same,TC1 response against TMP1 in mice gavaged with the strain (IFNγ ELISpot),splenic CD8+ T cells,unable to do so
same,capacity to induce pTh17 cells in secondary lymphoid organs,pTh17 cells,did not
same,restoration of antibiotic-perturbed anticancer effects of CTX (MCA205 growth),MCA-205 sarcoma [3],reduced anticancer effect
same,immunogenic and oncomicrobiotic properties of the isolate,[5],no immunogenic nor oncomicrobiotic properties
same,Anti-tumor effect,MCA-205 sarcoma [2],No
LLGIYQSYV,immunogenicity in humans of HLA-A0201-restricted epitopes,[1],immunogenicity of which has been experimentally confirmed
"O=P1(N(CCCl)CCCl)NCCCO1 (centres unmarked) [CTX, cyclophosphamide, reference compound]",anticancer effect on PSMB4 knock-in (GSFARFRNI) MCA205 tumors,[6],not interfering
Enterococcus hirae IGR10 [IGR 10],boost of CTX tumoricidal activity (MCA-205 tumor growth),MCA-205 sarcoma [2],failed to efficiently boost CTX tumoricidal activity
same,Anti-tumor effect,MCA-205 sarcoma [2],No
KMVEILEEI,immunogenicity in humans of HLA-A0201-restricted epitopes,[1],immunogenicity of which has been experimentally confirmed
"Enterococcus hirae ATCC9790 [10815 (ATCC9790), reference compound]","recall responses to TMP1, TMP2 and Group7 after in vivo immunization with the strain",splenic CD8+ T cells,does not induce recall responses
same,TC1 response against TMP1 in mice gavaged with the strain (IFNγ ELISpot),splenic CD8+ T cells,unable to do so
same,restoration of antibiotic-perturbed anticancer effects of CTX (MCA205 growth),MCA-205 sarcoma [3],reduced anticancer effect
same,boost of CTX tumoricidal activity (MCA-205 tumor growth),MCA-205 sarcoma [2],failed to efficiently boost CTX tumoricidal activity
same,boost of CTX tumoricidal activity (MCA-205 tumor growth),MCA-205 sarcoma [2]; listed as EH10815,did not mediate antitumor effects; also recorded: fails to work
same,Anti-tumor effect,MCA-205 sarcoma [2],No
Enterococcus hirae strain IGR4 [IGR 4],antitumor effect together with CTX (summary statements),MCA-205 sarcoma [2],effective at synergizing with CTX
same,boost of CTX tumoricidal activity (MCA-205 tumor growth),MCA-205 sarcoma [2],also immunogenic
same,boost of CTX tumoricidal activity (MCA-205 tumor growth),MCA-205 sarcoma [2]; listed as EH IGR 4,efficacy comparable to EH 13144
same,Anti-tumor effect,MCA-205 sarcoma [2],Yes
splenic CD8+ T cells of mice gavaged with E. hirae 13144 and treated with CTX (cells without a defined receptor),percentage of splenic CD8+ T cells recognising the tetramer,[7],< 1%
